Laboratory results: US9340590B2 (priority 2011, dated 2016)
Positions of bridges follow the written chain, without caps; N, C: chain ends. Non-standard residues stand in square brackets, D forms with d. Residues, ends and D or L forms follow the SMILES beside them. 1Nal = N[C@@H](Cc1cccc2ccccc12)C(=O)O

Biological target: hNav1.7 (Homo sapiens, UniProt Q15858)
Assay: cell-based
Details: Nav1.7 Use IC50

hNav1.7, sequence (Q15858 whole entry, looked up): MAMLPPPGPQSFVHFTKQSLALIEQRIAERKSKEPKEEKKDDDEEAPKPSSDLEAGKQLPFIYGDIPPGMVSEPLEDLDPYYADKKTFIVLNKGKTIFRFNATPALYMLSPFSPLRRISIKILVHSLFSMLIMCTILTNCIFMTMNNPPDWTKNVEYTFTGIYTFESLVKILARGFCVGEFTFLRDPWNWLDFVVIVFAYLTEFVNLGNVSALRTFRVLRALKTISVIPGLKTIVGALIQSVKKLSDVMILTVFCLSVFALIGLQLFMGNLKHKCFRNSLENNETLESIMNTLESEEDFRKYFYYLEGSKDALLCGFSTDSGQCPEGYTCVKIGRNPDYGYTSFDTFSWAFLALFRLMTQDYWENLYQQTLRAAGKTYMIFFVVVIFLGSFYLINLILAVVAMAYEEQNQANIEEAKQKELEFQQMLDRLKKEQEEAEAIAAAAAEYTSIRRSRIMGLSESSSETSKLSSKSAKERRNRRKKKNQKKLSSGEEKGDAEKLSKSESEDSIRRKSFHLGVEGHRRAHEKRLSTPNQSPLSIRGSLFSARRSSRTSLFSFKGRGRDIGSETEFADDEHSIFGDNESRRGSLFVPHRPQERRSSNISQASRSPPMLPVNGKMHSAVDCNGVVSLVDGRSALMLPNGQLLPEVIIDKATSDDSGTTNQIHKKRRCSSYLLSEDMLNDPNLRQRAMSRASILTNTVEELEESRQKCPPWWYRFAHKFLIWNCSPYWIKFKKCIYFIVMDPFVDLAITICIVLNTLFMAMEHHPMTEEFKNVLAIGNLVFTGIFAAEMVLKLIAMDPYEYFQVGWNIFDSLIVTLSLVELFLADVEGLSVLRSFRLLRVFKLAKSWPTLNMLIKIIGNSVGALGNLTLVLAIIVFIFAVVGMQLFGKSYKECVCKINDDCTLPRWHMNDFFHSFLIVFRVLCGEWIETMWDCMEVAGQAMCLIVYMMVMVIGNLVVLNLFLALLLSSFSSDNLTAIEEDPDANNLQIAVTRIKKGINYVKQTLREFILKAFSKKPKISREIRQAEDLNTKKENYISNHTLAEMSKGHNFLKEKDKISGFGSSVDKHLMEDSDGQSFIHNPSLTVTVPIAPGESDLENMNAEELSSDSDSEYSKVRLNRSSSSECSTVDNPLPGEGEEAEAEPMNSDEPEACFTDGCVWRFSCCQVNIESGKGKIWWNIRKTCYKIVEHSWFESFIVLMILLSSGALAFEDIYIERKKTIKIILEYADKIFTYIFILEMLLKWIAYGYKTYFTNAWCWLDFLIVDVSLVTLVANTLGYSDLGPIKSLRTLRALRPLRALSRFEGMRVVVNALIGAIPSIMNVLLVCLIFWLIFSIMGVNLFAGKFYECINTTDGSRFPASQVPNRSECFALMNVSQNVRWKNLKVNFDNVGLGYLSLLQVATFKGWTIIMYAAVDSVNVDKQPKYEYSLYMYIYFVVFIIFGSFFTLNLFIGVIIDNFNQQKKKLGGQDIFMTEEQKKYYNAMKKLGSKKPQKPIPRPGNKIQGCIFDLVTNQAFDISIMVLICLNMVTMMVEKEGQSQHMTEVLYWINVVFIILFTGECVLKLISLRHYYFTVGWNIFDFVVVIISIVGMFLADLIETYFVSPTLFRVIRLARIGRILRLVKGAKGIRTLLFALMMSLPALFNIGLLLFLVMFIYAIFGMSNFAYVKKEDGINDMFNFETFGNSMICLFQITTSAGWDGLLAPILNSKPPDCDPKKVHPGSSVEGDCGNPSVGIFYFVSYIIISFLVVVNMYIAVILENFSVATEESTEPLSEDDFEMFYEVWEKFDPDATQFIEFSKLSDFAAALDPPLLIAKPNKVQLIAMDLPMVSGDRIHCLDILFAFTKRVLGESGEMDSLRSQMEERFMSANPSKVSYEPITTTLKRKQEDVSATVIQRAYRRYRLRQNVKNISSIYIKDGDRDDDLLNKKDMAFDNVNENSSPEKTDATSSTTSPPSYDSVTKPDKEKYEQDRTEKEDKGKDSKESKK

Row | Structure (SMILES) | IC50 [nM]
1 | CC[C@@H]1NC(=O)CNC(=O)[C@H](CC(C)C)NC(=O)[C@@H](NC(=O)[C@@H](N)CC(=O)O)CSSC[C@@H]2NC(=O)[C@@H]3CSSC[C@@H](C(=O)N[C@@H](CCCCN)C(=O)N[C@@H](Cc4ccc(O)cc4)C(=O)N[C@H](C(=O)N[C@@H](Cc4ccccc4)C(N)=O)C(C)C)NC(=O)[C@H](Cc4c[nH]c5ccccc45)NC(=O)[C@H](CCCCN)NC(=O)[C@H](Cc4cnc[nH]4)NC(=O)[C@H]([C@@H](C)O)NC(=O)[C@H](CCCNC(=N)N)NC(=O)[C@H](CO)NC(=O)[C@H](CSSC[C@H](NC(=O)[C@H](CCCCN)NC(=O)[C@H](CCCNC(=N)N)NC(=O)[C@H](CCSC)NC1=O)C(=O)N[C@@H]([C@@H](C)CC)C(=O)N1CCC[C@H]1C(=O)N[C@@H](CC(=O)O)C(=O)N[C@@H](CC(N)=O)C(=O)N[C@@H](CC(=O)O)C(=O)N[C@@H](CCCCN)C(=O)N3)NC(=O)[C@H](C(C)C)NC(=O)[C@H](CC(C)C)NC(=O)[C@H](CC(N)=O)NC(=O)[C@@H]1CCCN1C(=O)[C@H](CCCNC(=N)N)NC2=O [[2-Abu5]GpTx-1(1-34)] | 83

Same assay, conditions: read-out: Nav1.7 Use IC50

Row | Structure (SMILES) | IC50 [nM]
2 | CC[C@H](C)[C@@H]1NC(=O)[C@@H]2CSSC[C@@H]3NC(=O)[C@H](C(C)C)NC(=O)[C@H](CC(C)C)NC(=O)[C@H](CC(N)=O)NC(=O)[C@@H]4CCCN4C(=O)[C@H](CCCNC(=N)N)NC(=O)[C@H](CSSC[C@H](NC(=O)[C@@H](N)CC(=O)O)C(=O)N[C@@H](CC(C)C)C(=O)N[C@@H](CCCCN)C(=O)N[C@@H](Cc4ccccc4)C(=O)N[C@@H](CCSC)C(=O)N[C@@H](CCCNC(=N)N)C(=O)N[C@@H](CCCCN)C(=O)N2)NC(=O)[C@H](CSSC[C@@H](C(=O)N[C@@H](CCCCN)C(=O)N[C@@H](Cc2ccc(O)cc2)C(=O)N[C@H](C(=O)N[C@@H](Cc2ccccc2)C(N)=O)C(C)C)NC(=O)[C@H](Cc2c[nH]c4ccccc24)NC(=O)[C@H](CCCCN)NC(=O)[C@H](Cc2c[nH]cn2)NC(=O)[C@H]([C@@H](C)O)NC(=O)[C@H](CCCNC(=N)N)NC(=O)[C@H](CO)NC3=O)NC(=O)[C@H](CCCCN)NC(=O)[C@H](CC(=O)O)NC(=O)[C@H](CC(N)=O)NC(=O)[C@H](CC(=O)O)NC(=O)[C@@H]2CCCN2C1=O [SEQ ID NO: 39] (H-DCLKFMRKCIPDNDKCCRPNLVCSRTHKWCKYVF-NH2; disulfide 2-17, 9-23, 16-30) | 6
3 | CC[C@H](C)[C@@H]1NC(=O)[C@@H]2CSSC[C@@H]3NC(=O)[C@H](C(C)C)NC(=O)[C@H](CC(C)C)NC(=O)[C@H](CC(N)=O)NC(=O)[C@@H]4CCCN4C(=O)[C@H](CCCNC(=N)N)NC(=O)[C@H](CSSC[C@H](NC(=O)[C@@H](N)CC(=O)O)C(=O)N[C@@H](CC(C)C)C(=O)N[C@@H](CCCNC(=N)N)C(=O)N[C@@H](Cc4ccccc4)C(=O)N[C@@H](CCSC)C(=O)N[C@@H](CCCNC(=N)N)C(=O)N[C@@H](CCCCN)C(=O)N2)NC(=O)[C@H](CSSC[C@@H](C(=O)N[C@@H](CCCCN)C(=O)N[C@@H](Cc2ccc(O)cc2)C(=O)N[C@H](C(=O)N[C@@H](Cc2ccccc2)C(N)=O)C(C)C)NC(=O)[C@H](Cc2c[nH]c4ccccc24)NC(=O)[C@H](CCCCN)NC(=O)[C@H](Cc2c[nH]cn2)NC(=O)[C@H]([C@@H](C)O)NC(=O)[C@H](CCCNC(=N)N)NC(=O)[C@H](CO)NC3=O)NC(=O)[C@H](CCCCN)NC(=O)[C@H](CC(=O)O)NC(=O)[C@H](CC(N)=O)NC(=O)[C@H](CC(=O)O)NC(=O)[C@@H]2CCCN2C1=O [SEQ ID NO: 63] (H-DCLRFMRKCIPDNDKCCRPNLVCSRTHKWCKYVF-NH2; disulfide 2-17, 9-23, 16-30) | 3
4 | CC[C@H](C)[C@@H]1NC(=O)[C@@H]2CSSC[C@@H]3NC(=O)[C@H](C(C)C)NC(=O)[C@H](CC(C)C)NC(=O)[C@H](CC(N)=O)NC(=O)[C@@H]4CCCN4C(=O)[C@H](CCCNC(=N)N)NC(=O)[C@H](CSSC[C@H](NC(=O)[C@@H](N)CC(=O)O)C(=O)N[C@@H](CC(C)C)C(=O)NCC(=O)NCC(=O)N[C@@H](CCSC)C(=O)N[C@@H](CCCNC(=N)N)C(=O)N[C@@H](CCCCN)C(=O)N2)NC(=O)[C@H](CSSC[C@@H](C(=O)N[C@@H](CCCCN)C(=O)N[C@@H](Cc2ccc(O)cc2)C(=O)N[C@H](C(=O)N[C@@H](Cc2ccccc2)C(N)=O)C(C)C)NC(=O)[C@H](Cc2c[nH]c4ccccc24)NC(=O)[C@H](CCCCN)NC(=O)[C@H](Cc2c[nH]cn2)NC(=O)[C@H]([C@@H](C)O)NC(=O)[C@H](CCCNC(=N)N)NC(=O)[C@H](CO)NC3=O)NC(=O)[C@H](CCCCN)NC(=O)[C@H](CC(=O)O)NC(=O)[C@H](CC(N)=O)NC(=O)[C@H](CC(=O)O)NC(=O)[C@@H]2CCCN2C1=O [SEQ ID NO: 265] (H-DCLGGMRKCIPDNDKCCRPNLVCSRTHKWCKYVF-NH2; disulfide 2-17, 9-23, 16-30) | 9
5 | CC[C@H](C)[C@@H]1NC(=O)[C@@H]2CSSC[C@@H]3NC(=O)[C@H](C(C)C)NC(=O)[C@H](CC(C)C)NC(=O)[C@H](CC(N)=O)NC(=O)[C@@H]4CCCN4C(=O)[C@H](CCCNC(=N)N)NC(=O)[C@H](CSSC[C@H](NC(=O)[C@@H](N)CC(=O)O)C(=O)N[C@@H](CC(C)C)C(=O)NCC(=O)N[C@@H](CCSC)C(=O)N[C@@H](CCSC)C(=O)N[C@@H](CCCNC(=N)N)C(=O)N[C@@H](CCCCN)C(=O)N2)NC(=O)[C@H](CSSC[C@@H](C(=O)N[C@@H](CCCCN)C(=O)N[C@@H](Cc2ccc(O)cc2)C(=O)N[C@H](C(=O)N[C@@H](Cc2ccccc2)C(N)=O)C(C)C)NC(=O)[C@H](Cc2c[nH]c4ccccc24)NC(=O)[C@H](CCCCN)NC(=O)[C@H](Cc2c[nH]cn2)NC(=O)[C@H]([C@@H](C)O)NC(=O)[C@H](CCCNC(=N)N)NC(=O)[C@H](CO)NC3=O)NC(=O)[C@H](CCCCN)NC(=O)[C@H](CC(=O)O)NC(=O)[C@H](CC(N)=O)NC(=O)[C@H](CC(=O)O)NC(=O)[C@@H]2CCCN2C1=O [SEQ ID NO: 268] (H-DCLGMMRKCIPDNDKCCRPNLVCSRTHKWCKYVF-NH2; disulfide 2-17, 9-23, 16-30) | 2
6 | CC[C@H](C)[C@@H]1NC(=O)[C@@H]2CSSC[C@@H]3NC(=O)[C@H](C(C)C)NC(=O)[C@H](CC(C)C)NC(=O)[C@H](CC(N)=O)NC(=O)[C@@H]4CCCN4C(=O)[C@H](CCCNC(=N)N)NC(=O)[C@H](CSSC[C@H](NC(=O)[C@@H](N)CC(=O)O)C(=O)N[C@@H](CC(C)C)C(=O)NCC(=O)N[C@@H](Cc4ccccc4)C(=O)N[C@@H](CCSC)C(=O)N[C@@H](CCCNC(=N)N)C(=O)N[C@@H](CCCCN)C(=O)N2)NC(=O)[C@H](CSSC[C@@H](C(=O)N[C@@H](CCCCN)C(=O)N[C@@H](Cc2cccc4ccccc24)C(=O)N[C@H](C(=O)N[C@@H](Cc2ccccc2)C(N)=O)C(C)C)NC(=O)[C@H](Cc2c[nH]c4ccccc24)NC(=O)[C@H](CCCCN)NC(=O)[C@H](Cc2c[nH]cn2)NC(=O)[C@H]([C@@H](C)O)NC(=O)[C@H](CCCNC(=N)N)NC(=O)[C@H](CO)NC3=O)NC(=O)[C@H](CCCCN)NC(=O)[C@H](CC(=O)O)NC(=O)[C@H](CC(N)=O)NC(=O)[C@H](CC(=O)O)NC(=O)[C@@H]2CCCN2C1=O [[1-Nal32]GpTx-1(1-34)] (H-DCLGFMRKCIPDNDKCCRPNLVCSRTHKWCK[1Nal]VF-NH2; disulfide 2-17, 9-23, 16-30) | 4
7 | CCCC[C@@H]1NC(=O)[C@H](C)NC(=O)CNC(=O)[C@H](CC(C)C)NC(=O)[C@@H](NC(=O)[C@@H](N)CC(=O)O)CSSC[C@@H]2NC(=O)[C@@H]3CSSC[C@@H](C(=O)N[C@@H](CCCCN)C(=O)N[C@@H](Cc4ccc(O)cc4)C(=O)N[C@H](C(=O)N[C@@H](Cc4ccccc4)C(N)=O)C(C)C)NC(=O)[C@H](Cc4c[nH]c5ccccc45)NC(=O)[C@H](CCCCN)NC(=O)[C@H](Cc4c[nH]cn4)NC(=O)[C@H]([C@@H](C)O)NC(=O)[C@H](CCCNC(=N)N)NC(=O)[C@H](CO)NC(=O)[C@H](CSSC[C@H](NC(=O)[C@H](CCCCN)NC(=O)[C@H](CCCNC(=N)N)NC1=O)C(=O)N[C@@H]([C@@H](C)CC)C(=O)N1CCC[C@H]1C(=O)N[C@@H](CC(=O)O)C(=O)N[C@@H](CC(N)=O)C(=O)N[C@@H](CC(=O)O)C(=O)N[C@@H](CCCCN)C(=O)N3)NC(=O)[C@H](C(C)C)NC(=O)[C@H](CC(C)C)NC(=O)[C@H](CC(N)=O)NC(=O)[C@@H]1CCCN1C(=O)[C@H](CCCNC(=N)N)NC2=O [[Ala5;Nle6]GpTx-1(1-34)] | 10
8 | CC[C@H](C)[C@@H]1NC(=O)[C@@H]2CSSC[C@@H]3NC(=O)[C@H](C(C)C)NC(=O)[C@H](CC(C)C)NC(=O)[C@H](CC(N)=O)NC(=O)[C@@H]4CCCN4C(=O)[C@H](CCCNC(=N)N)NC(=O)[C@H](CSSC[C@H](NC(=O)[C@@H](N)CC(=O)O)C(=O)N[C@@H](CC(C)C)C(=O)NCC(=O)N[C@@H](C)C(=O)N[C@@H](Cc4ccccc4)C(=O)N[C@@H](CCCNC(=N)N)C(=O)N[C@@H](CCCCN)C(=O)N2)NC(=O)[C@H](CSSC[C@@H](C(=O)N[C@@H](CCCCN)C(=O)N[C@@H](Cc2ccc(O)cc2)C(=O)N[C@H](C(=O)N[C@@H](Cc2ccccc2)C(N)=O)C(C)C)NC(=O)[C@H](Cc2c[nH]c4ccccc24)NC(=O)[C@H](CCCCN)NC(=O)[C@H](Cc2c[nH]cn2)NC(=O)[C@H](CC(C)C)NC(=O)[C@H](CCCNC(=N)N)NC(=O)[C@H](CO)NC3=O)NC(=O)[C@H](CCCCN)NC(=O)[C@H](CC(=O)O)NC(=O)[C@H](CC(N)=O)NC(=O)[C@H](CC(=O)O)NC(=O)[C@@H]2CCCN2C1=O [[Ala5;Phe6;Leu26]GpTx-1(1-34)] (H-DCLGAFRKCIPDNDKCCRPNLVCSRLHKWCKYVF-NH2; disulfide 2-17, 9-23, 16-30) | 4
9 | CC[C@H](C)[C@@H]1NC(=O)[C@@H]2CSSC[C@@H]3NC(=O)[C@H](C(C)C)NC(=O)[C@H](CC(C)C)NC(=O)[C@H](CC(N)=O)NC(=O)[C@@H]4CCCN4C(=O)[C@H](CCCNC(=N)N)NC(=O)[C@H](CSSC[C@H](NC(=O)[C@@H](N)CC(=O)O)C(=O)N[C@@H](CC(C)C)C(=O)NCC(=O)N[C@@H](Cc4ccccc4)C(=O)N[C@@H](CCSC)C(=O)N[C@@H](CCCNC(=N)N)C(=O)N[C@@H](CCCCN)C(=O)N2)NC(=O)[C@H](CSSC[C@@H](C(=O)N[C@@H](CCCCN)C(=O)N[C@@H](Cc2ccc(O)cc2)C(=O)N[C@H](C(=O)N[C@@H](Cc2ccccc2)C(N)=O)C(C)C)NC(=O)[C@H](Cc2c[nH]c4ccccc24)NC(=O)[C@H](CCCCN)NC(=O)[C@H](Cc2c[nH]cn2)NC(=O)[C@H](CCCNC(=N)N)NC(=O)[C@H](CCCNC(=N)N)NC(=O)[C@H](CO)NC3=O)NC(=O)[C@H](CCCCN)NC(=O)[C@H](CC(=O)O)NC(=O)[C@H](CC(N)=O)NC(=O)[C@H](CC(=O)O)NC(=O)[C@@H]2CCCN2C1=O [[Arg26]GpTx-1(1-34)] (H-DCLGFMRKCIPDNDKCCRPNLVCSRRHKWCKYVF-NH2; disulfide 2-17, 9-23, 16-30) | 5
